According to paper PMC5218480 (PLoS ONE, 2017):

Tested on: MV-4-11 cells
Assay: Gene expression microarray analysis (Affymetrix PrimeView) and GSEA
Assay type: cell-based, human
Parameters: RFU PODN (11730768_x_at) / Fold change /veh PODN (11730768_x_at) / RFU LINC00158 (11744669_a_at) / Fold change /veh LINC00158 (11744669_a_at) / RFU DUSP10 (11751237_a_at) / Fold change /veh DUSP10 (11751237_a_at) / RFU ID3 (11757404_x_at) / Fold change /veh ID3 (11757404_x_at) / RFU PLEKHG5 (11737974_s_at) / Fold change /veh PLEKHG5 (11737974_s_at) / RFU LRRC4B (11730491_at) / Fold change /veh LRRC4B (11730491_at) / RFU GIMAP4 (11747438_a_at) / Fold change /veh GIMAP4 (11747438_a_at) / RFU KRT8 (11758183_x_at) / Fold change /veh KRT8 (11758183_x_at) / RFU CNN1 (11734310_a_at) / Fold change /veh CNN1 (11734310_a_at) / RFU VPS37D (11726825_at) / Fold change /veh VPS37D (11726825_at) / RFU C10orf10 (11716522_x_at) / Fold change /veh C10orf10 (11716522_x_at) / RFU KIR2DL2 /// KIR2DL4 /// KIR2DL5A /// KIR2DL5B /// KIR2DS1 /// KIR2DS2 /// KIR2DS3 /// KIR2DS4 /// KIR3DL3 /// KIR3DL3 /// KIR3DS1 (11738374_at) / Fold change /veh KIR2DL2 /// KIR2DL4 /// KIR2DL5A /// KIR2DL5B /// KIR2DS1 /// KIR2DS2 /// KIR2DS3 /// KIR2DS4 /// KIR3DL3 /// KIR3DL3 /// KIR3DS1 (11738374_at) / RFU C1QL1 (11718748_at) / Fold change /veh C1QL1 (11718748_at) / RFU TMPRSS4 (11747572_a_at) / Fold change /veh TMPRSS4 (11747572_a_at) / RFU HAMP (11756126_x_at) / Fold change /veh HAMP (11756126_x_at) / RFU RNFT2 (11725882_a_at) / Fold change /veh RNFT2 (11725882_a_at) / RFU NR4A2 (11747474_a_at) / Fold change /veh NR4A2 (11747474_a_at) / RFU ABCC12 (11746883_a_at) / Fold change /veh ABCC12 (11746883_a_at) / RFU TMEM136 (11760407_x_at) / Fold change /veh TMEM136 (11760407_x_at) / RFU CLDN22 /// WWC2 (11732394_at) / Fold change /veh CLDN22 /// WWC2 (11732394_at) / RFU HLA-DPB1 (11760878_x_at) / Fold change /veh HLA-DPB1 (11760878_x_at) / RFU SPINT1 (11716480_a_at) / Fold change /veh SPINT1 (11716480_a_at) / RFU GAP43 (11754022_s_at) / Fold change /veh GAP43 (11754022_s_at) / RFU A4GNT (11735810_at) / Fold change /veh A4GNT (11735810_at) / RFU PRB3 (11715151_x_at) / Fold change /veh PRB3 (11715151_x_at) / RFU TUBB4B (11761932_at) / Fold change /veh TUBB4B (11761932_at) / RFU CAPN14 (11732068_a_at) / Fold change /veh CAPN14 (11732068_a_at) / RFU TMCC2 (11721928_a_at) / Fold change /veh TMCC2 (11721928_a_at) / RFU IRGQ (11745062_a_at) / Fold change /veh IRGQ (11745062_a_at) / RFU FAM174B (11720279_a_at) / Fold change /veh FAM174B (11720279_a_at) / RFU TMPRSS4 (11748680_a_at) / Fold change /veh TMPRSS4 (11748680_a_at) / RFU FAM212B (11763350_a_at) / Fold change /veh FAM212B (11763350_a_at) / RFU PLEKHG5 (11743358_a_at) / Fold change /veh PLEKHG5 (11743358_a_at) / RFU ZSCAN30 (11745921_a_at) / Fold change /veh ZSCAN30 (11745921_a_at) / RFU CMKLR1 (11741424_a_at) / Fold change /veh CMKLR1 (11741424_a_at) / RFU LOC101060620 /// MAPK8IP1 (11723275_at) / Fold change /veh LOC101060620 /// MAPK8IP1 (11723275_at) / RFU SPTSSB (11747773_x_at) / Fold change /veh SPTSSB (11747773_x_at) / RFU PRSS12 (11739890_at) / Fold change /veh PRSS12 (11739890_at) / RFU BIN1 (11741810_x_at) / Fold change /veh BIN1 (11741810_x_at) / RFU WNT11 (11732464_a_at) / Fold change /veh WNT11 (11732464_a_at) / RFU C10orf10 (11716521_a_at) / Fold change /veh C10orf10 (11716521_a_at) / RFU C5orf56 (11738089_at) / Fold change /veh C5orf56 (11738089_at) / RFU CYB561 (11721691_x_at) / Fold change /veh CYB561 (11721691_x_at) / RFU ANKRD19P (11752326_a_at) / Fold change /veh ANKRD19P (11752326_a_at) / RFU OR2T12 /// OR2T33 /// OR2T8 (11738714_s_at) / Fold change /veh OR2T12 /// OR2T33 /// OR2T8 (11738714_s_at) / RFU VCAN (11748164_a_at) / Fold change /veh VCAN (11748164_a_at) / RFU JSRP1 (11732532_at) / Fold change /veh JSRP1 (11732532_at) / RFU KRTAP10-11 (11738290_x_at) / Fold change /veh KRTAP10-11 (11738290_x_at) / RFU MYO3A (11730013_a_at) / Fold change /veh MYO3A (11730013_a_at) / RFU EBF3 (11725865_a_at) / Fold change /veh EBF3 (11725865_a_at) / RFU CAMK2N1 (11719241_x_at) / Fold change /veh CAMK2N1 (11719241_x_at) / RFU C5orf56 (11738088_a_at) / Fold change /veh C5orf56 (11738088_a_at) / RFU OLFML3 (11715873_a_at) / Fold change /veh OLFML3 (11715873_a_at) / RFU LOC100653217 /// NTM (11731650_a_at) / Fold change /veh LOC100653217 /// NTM (11731650_a_at) / RFU MAPK11 (11762145_a_at) / Fold change /veh MAPK11 (11762145_a_at) / RFU FIZ1 (11724087_x_at) / Fold change /veh FIZ1 (11724087_x_at) / RFU OASL (11726364_x_at) / Fold change /veh OASL (11726364_x_at) / RFU SOX15 (11748057_x_at) / Fold change /veh SOX15 (11748057_x_at) / RFU CD79A (11719716_a_at) / Fold change /veh CD79A (11719716_a_at) / RFU HIST1H1D (11736915_at) / Fold change /veh HIST1H1D (11736915_at) / RFU CASKIN2 (11723855_a_at) / Fold change /veh CASKIN2 (11723855_a_at) / RFU LOC730098 (11760151_x_at) / Fold change /veh LOC730098 (11760151_x_at) / RFU OR4N2 (11742367_at) / Fold change /veh OR4N2 (11742367_at) / RFU PRRT2 (11749266_a_at) / Fold change /veh PRRT2 (11749266_a_at) / RFU SNX32 (11753110_a_at) / Fold change /veh SNX32 (11753110_a_at) / RFU CDHR5 (11726645_a_at) / Fold change /veh CDHR5 (11726645_a_at) / RFU RCAN1 (11760418_a_at) / Fold change /veh RCAN1 (11760418_a_at) / RFU FAM167A (11723789_a_at) / Fold change /veh FAM167A (11723789_a_at) / RFU FAM26E (11764081_at) / Fold change /veh FAM26E (11764081_at) / RFU ISYNA1 (11749810_s_at) / Fold change /veh ISYNA1 (11749810_s_at) / RFU ACY1 (11761880_at) / Fold change /veh ACY1 (11761880_at) / RFU 11764098_at / Fold change /veh 11764098_at / RFU SAMD14 (11745864_x_at) / Fold change /veh SAMD14 (11745864_x_at) / RFU NPB (11741838_a_at) / Fold change /veh NPB (11741838_a_at) / RFU TMPRSS6 (11731388_a_at) / Fold change /veh TMPRSS6 (11731388_a_at) / RFU KRTAP10-2 (11738614_at) / Fold change /veh KRTAP10-2 (11738614_at) / RFU ARHGAP8 /// PRR5-ARHGAP8 (11727945_x_at) / Fold change /veh ARHGAP8 /// PRR5-ARHGAP8 (11727945_x_at) / RFU KRTAP5-7 /// NADSYN1 (11734609_at) / Fold change /veh KRTAP5-7 /// NADSYN1 (11734609_at) / RFU RASL12 (11751679_a_at) / Fold change /veh RASL12 (11751679_a_at) / RFU CDKN2B (11736163_a_at) / Fold change /veh CDKN2B (11736163_a_at) / RFU PRF1 (11729649_at) / Fold change /veh PRF1 (11729649_at) / RFU, ZNF638 /// ZNF638-IT1 / Fold change vs veh, ZNF638 /// ZNF638-IT1 / RFU, PANK3 / Fold change vs veh, PANK3 / RFU, SH3YL1 / Fold change vs veh, SH3YL1 / RFU, ZEB2 / Fold change vs veh, ZEB2 / RFU, NRIP1 / Fold change vs veh, NRIP1 / RFU, PTTG1IP / Fold change vs veh, PTTG1IP / RFU, CAPN2 / Fold change vs veh, CAPN2 / RFU, MED14 / Fold change vs veh, MED14 / RFU, SNORA58 / Fold change vs veh, SNORA58 / RFU, C1orf63 / Fold change vs veh, C1orf63 / RFU, LRRFIP1 / Fold change vs veh, LRRFIP1 / RFU, NDUFAF7 / Fold change vs veh, NDUFAF7 / RFU, SLC12A2 / Fold change vs veh, SLC12A2 / RFU, IBTK / Fold change vs veh, IBTK / RFU, ESF1 / Fold change vs veh, ESF1 / Fold change vs veh, TMEM50B / RFU, TAOK1 / Fold change vs veh, TAOK1 / RFU, ACBD3 / Fold change vs veh, ACBD3 / RFU, TMA16 / Fold change vs veh, TMA16 / RFU, RWDD3 / Fold change vs veh, RWDD3 / RFU, BCAT1 / Fold change vs veh, BCAT1 / RFU, EDEM3 / Fold change vs veh, EDEM3 / RFU, TMEM33 / Fold change vs veh, TMEM33 / RFU, WDR75 / Fold change vs veh, WDR75 / RFU, AHCTF1 / Fold change vs veh, AHCTF1 / RFU, TFRC / Fold change vs veh, TFRC / RFU, ZDHHC17 / Fold change vs veh, ZDHHC17 / RFU, NOM1 / Fold change vs veh, NOM1 / RFU, ARL8B / Fold change vs veh, ARL8B / RFU, ZBTB11 / Fold change vs veh, ZBTB11 / RFU, TAMM41 / Fold change vs veh, TAMM41 / RFU, KIAA1704 /// LOC100996395 / Fold change vs veh, KIAA1704 /// LOC100996395 / RFU, ING1 / Fold change vs veh, ING1 / RFU, TRMT61B / Fold change vs veh, TRMT61B / RFU, FUBP3 / Fold change vs veh, FUBP3 / RFU, TP53 / Fold change vs veh, TP53 / RFU, TNKS2 / Fold change vs veh, TNKS2 / RFU, ZFP14 / Fold change vs veh, ZFP14 / RFU, ACTR2 / Fold change vs veh, ACTR2 / RFU, PPP3R1 / Fold change vs veh, PPP3R1 / RFU, PIK3R1 / Fold change vs veh, PIK3R1 / RFU, HNRNPA1 / Fold change vs veh, HNRNPA1 / RFU, RNF170 / Fold change vs veh, RNF170 / RFU, ZNF28 / Fold change vs veh, ZNF28 / RFU, RNGTT / Fold change vs veh, RNGTT / RFU, OGT / Fold change vs veh, OGT / RFU, BRD1 / Fold change vs veh, BRD1 / RFU, MARS / Fold change vs veh, MARS / RFU, ZNF655 / Fold change vs veh, ZNF655 / RFU, FAHD1 / Fold change vs veh, FAHD1 / RFU, BDP1 / Fold change vs veh, BDP1 / RFU, LRRCC1 / Fold change vs veh, LRRCC1 / RFU, ARID1A / Fold change vs veh, ARID1A / RFU, ZNF146 / Fold change vs veh, ZNF146 / RFU, ZNF330 / Fold change vs veh, ZNF330 / RFU, GPN3 / Fold change vs veh, GPN3 / RFU, C9orf123 / Fold change vs veh, C9orf123 / RFU, N4BP2L2 / Fold change vs veh, N4BP2L2 / RFU, ARFIP1 / Fold change vs veh, ARFIP1 / RFU, FAM179B / Fold change vs veh, FAM179B / RFU, BCL10 / Fold change vs veh, BCL10 / RFU, UHRF1BP1L / Fold change vs veh, UHRF1BP1L / RFU, BET1 / Fold change vs veh, BET1 / RFU, CNOT2 / Fold change vs veh, CNOT2 / RFU, ZNF268 / Fold change vs veh, ZNF268 / Fold change vs veh, ZNF507 / RFU, DGCR2 / Fold change vs veh, DGCR2 / RFU, WDSUB1 / Fold change vs veh, WDSUB1 / Fold change vs veh, HSP90B1 /// MIR3652 / RFU, ADSS / Fold change vs veh, ADSS / RFU, GK / Fold change vs veh, GK / RFU, ZNF148 / Fold change vs veh, ZNF148 / RFU, TAF9 / Fold change vs veh, TAF9 / RFU, SLC1A5 / Fold change vs veh, SLC1A5 / RFU, SLMO2 / Fold change vs veh, SLMO2 / RFU, ABCC4 / Fold change vs veh, ABCC4 / RFU, LOC101060439 /// RAP1B / Fold change vs veh, LOC101060439 /// RAP1B / RFU, RFX7 / Fold change vs veh, RFX7 / RFU, GTPBP10 / Fold change vs veh, GTPBP10 / RFU, CNEP1R1 / Fold change vs veh, CNEP1R1 / RFU, BIVM-ERCC5 /// ERCC5 / Fold change vs veh, BIVM-ERCC5 /// ERCC5 / RFU, ILF3 / Fold change vs veh, ILF3 / RFU 11762660_at / Fold change /veh 11762660_at / RFU VCAN (11757783_s_at) / Fold change /veh VCAN (11757783_s_at) / RFU DDX43 (11728927_at) / Fold change /veh DDX43 (11728927_at) / RFU KRT8 (11758188_x_at) / Fold change /veh KRT8 (11758188_x_at) / RFU NKD1 (11759106_at) / Fold change /veh NKD1 (11759106_at) / RFU SRD5A1 (11742802_a_at) / Fold change /veh SRD5A1 (11742802_a_at) / RFU TPSAB1 /// TPSB2 (11721975_s_at) / Fold change /veh TPSAB1 /// TPSB2 (11721975_s_at) / RFU GSTM3 (11746129_a_at) / Fold change /veh GSTM3 (11746129_a_at) / RFU IL23R (11737362_x_at) / Fold change /veh IL23R (11737362_x_at) / RFU TMEM51 (11727254_a_at) / Fold change /veh TMEM51 (11727254_a_at) / RFU PIWIL2 (11732686_x_at) / Fold change /veh PIWIL2 (11732686_x_at) / RFU ORM1 (11744905_x_at) / Fold change /veh ORM1 (11744905_x_at) / RFU CCDC152 (11743942_at) / Fold change /veh CCDC152 (11743942_at) / RFU ECM1 (11717891_a_at) / Fold change /veh ECM1 (11717891_a_at) / RFU IL23R (11748794_a_at) / Fold change /veh IL23R (11748794_a_at) / RFU TNFAIP8L3 (11732012_x_at) / Fold change /veh TNFAIP8L3 (11732012_x_at) / RFU MBOAT4 (11741988_at) / Fold change /veh MBOAT4 (11741988_at) / RFU 11764193_at / Fold change /veh 11764193_at / RFU TMEM53 (11763286_at) / Fold change /veh TMEM53 (11763286_at) / RFU MAGEB2 (11727129_at) / Fold change /veh MAGEB2 (11727129_at) / RFU TMEM200A (11744735_a_at) / Fold change /veh TMEM200A (11744735_a_at) / RFU CCDC152 (11751479_a_at) / Fold change /veh CCDC152 (11751479_a_at) / RFU FAM211A (11726209_a_at) / Fold change /veh FAM211A (11726209_a_at) / RFU RGS16 (11746705_a_at) / Fold change /veh RGS16 (11746705_a_at) / RFU VCAN (11755009_s_at) / Fold change /veh VCAN (11755009_s_at) / RFU RHOB (11743442_s_at) / Fold change /veh RHOB (11743442_s_at) / RFU RGS16 (11720943_a_at) / Fold change /veh RGS16 (11720943_a_at) / RFU RGS16 (11720944_at) / Fold change /veh RGS16 (11720944_at) / RFU, VPS4B / Fold change vs veh, VPS4B / RFU, CREB1 / Fold change vs veh, CREB1 / RFU, DNAJC13 / Fold change vs veh, DNAJC13 / RFU, GNAQ / Fold change vs veh, GNAQ / RFU, CDK5R1 / Fold change vs veh, CDK5R1 / RFU, ZRANB3 / Fold change vs veh, ZRANB3 / RFU, CUL4A / Fold change vs veh, CUL4A / RFU, CCNY / Fold change vs veh, CCNY / RFU, UFL1 / Fold change vs veh, UFL1 / RFU, COG3 / Fold change vs veh, COG3 / RFU, DIAPH2 / Fold change vs veh, DIAPH2 / RFU, SKA2 / Fold change vs veh, SKA2 / RFU, AFF3 / Fold change vs veh, AFF3 / RFU, LMF1 / Fold change vs veh, LMF1 / RFU, IPO11 / Fold change vs veh, IPO11 / RFU, DFFB / Fold change vs veh, DFFB / RFU, FOXP1 / Fold change vs veh, FOXP1 / RFU, CARD8 / Fold change vs veh, CARD8 / RFU, STRN3 / Fold change vs veh, STRN3 / RFU, ADK / Fold change vs veh, ADK / RFU, RASSF2 / Fold change vs veh, RASSF2 / RFU, WIPF1 / Fold change vs veh, WIPF1 / RFU, LARP1B / Fold change vs veh, LARP1B / RFU, RASA1 / Fold change vs veh, RASA1 / RFU, RB1 / Fold change vs veh, RB1 / RFU, PPFIA1 / Fold change vs veh, PPFIA1 / RFU, MAT2A / Fold change vs veh, MAT2A / RFU, CCT5 / Fold change vs veh, CCT5 / RFU, WDR92 / Fold change vs veh, WDR92 / RFU, CUX1 / Fold change vs veh, CUX1 / RFU, TTC7A / Fold change vs veh, TTC7A / RFU, TMEM135 / Fold change vs veh, TMEM135 / RFU, DEPTOR / Fold change vs veh, DEPTOR / RFU, CPM / Fold change vs veh, CPM / RFU, DNAJB6 / Fold change vs veh, DNAJB6 / RFU, CACNA2D3 / Fold change vs veh, CACNA2D3 / RFU, DTX4 / Fold change vs veh, DTX4 / RFU, TFCP2 / Fold change vs veh, TFCP2 / RFU, GMCL1 /// GMCL1P1 / Fold change vs veh, GMCL1 /// GMCL1P1 / RFU, AEBP2 / Fold change vs veh, AEBP2 / RFU, SNHG1 /// SNORD22 /// SNORD25 /// SNORD26 /// SNORD27 /// SNORD28 /// SNORD29 /// SNORD31 / Fold change vs veh, SNHG1 /// SNORD22 /// SNORD25 /// SNORD26 /// SNORD27 /// SNORD28 /// SNORD29 /// SNORD31 / Fold change (Aza/veh), C12orf56 (ProbeSet 11735607_a_at) / Fold change (ACY-1035/veh), C12orf56 (ProbeSet 11735607_a_at) / Fold change (Aza/veh), FGFR1OP (ProbeSet 11751329_s_at) / Fold change (ACY-1035/veh), FGFR1OP (ProbeSet 11751329_s_at) / Fold change (Aza/veh), VPS36 (ProbeSet 11739960_a_at) / Fold change (ACY-1035/veh), VPS36 (ProbeSet 11739960_a_at) / RFU SYPL1 (11715823_x_at) / Fold change /veh SYPL1 (11715823_x_at) / RFU IGFBP7 (11715501_s_at) / Fold change /veh IGFBP7 (11715501_s_at) / RFU REEP3 (11722064_at) / Fold change /veh REEP3 (11722064_at) / RFU IGLL1 (11728026_x_at) / Fold change /veh IGLL1 (11728026_x_at): dose or concentration left out as unconfirmed
Conditions: MV-4-11 cells, 48 hours

`Nc1ccc(-c2cccs2)cc1NC(=O)c1ccc2c(c1)cc(C1CC1)n2CCN1CCOCC1` [ACY-1035] was tested. Which “Fold change /veh NKD1 (11759106_at)” value did it give?
The value was 1.08.
